Experiments:
yeast OLE1 = target: T1, yeast OLE1 (Saccharomyces cerevisiae, UniProt P21147); experiment: Growth of yeast surviving solely on yeast OLE1; type: cell-based; conditions: percent of DMSO-treated condition
T1 construct: expressed in transfected cells; host or cells: S. cerevisiae ole1Δ strain (W303 pdr1Δ pdr3Δ background), pRS316 plasmid, TDH3 promoter
T1 sequence (P21147 1-510): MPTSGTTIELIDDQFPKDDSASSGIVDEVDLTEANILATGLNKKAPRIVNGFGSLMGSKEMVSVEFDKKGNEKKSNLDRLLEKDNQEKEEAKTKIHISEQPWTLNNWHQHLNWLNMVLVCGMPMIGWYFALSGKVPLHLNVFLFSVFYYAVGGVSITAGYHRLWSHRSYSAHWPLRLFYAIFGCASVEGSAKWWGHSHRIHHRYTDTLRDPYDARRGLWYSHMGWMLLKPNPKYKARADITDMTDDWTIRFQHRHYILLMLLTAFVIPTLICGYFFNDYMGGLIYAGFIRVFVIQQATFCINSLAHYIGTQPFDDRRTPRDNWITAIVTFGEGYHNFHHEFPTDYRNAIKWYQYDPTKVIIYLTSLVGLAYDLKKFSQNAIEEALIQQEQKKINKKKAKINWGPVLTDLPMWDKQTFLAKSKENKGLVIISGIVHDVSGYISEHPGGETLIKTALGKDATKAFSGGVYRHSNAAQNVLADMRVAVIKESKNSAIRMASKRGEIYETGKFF
Source text: (§1) To generate yeast strains expressing SCD1 or SCD5 as the sole desaturase, the human SCD1 and SCD5 genes were cloned from cDNAs (Harvard PlasmID database Clone ID HsCD00340237 for SCD1 and HsCD00342695 for SCD5) into yeast plasmid pRS316 (ATCC 77145) between the yeast TDH3 promoter and the CYC1 terminator. The coding sequence of yeast OLE1 was also cloned into this plasmid). These clones were then transformed into the ole1Δ strain and plated on CSM-Ura media (CSM lacking uracil) with 2% glucose (w/v) and independent colonies were isolated and amplified.
(§2) All compound profiling experiments were performed using the same basic protocol. Different genetic backgrounds (e.g., gene deletions) or conditions (e.g., addition of oleic and palmitoleic acid) were replaced as indicated below.
(§3) Compound stocks (10 mM in 100% DMSO) were arrayed into 384 round well, v-bottom polypropylene plates and diluted according to indicated dilution factors. Compound administration was performed in two separate steps. First, 15 μL of CSM-Galactose (induces expression of toxic protein) was dispensed into clear 384 well assay plates using a MULTIDROP™ Combi reagent dispenser. The diluted compound stock plates were then applied to the assay plates using an automated workstation (Perkin Elmer JANUS™) outfitted with a 384 pin tool containing slotted pins that deliver 100 nL of compound. The cultures described above were then diluted to a 2× concentration (0.03 and 0.08 for alpha-synuclein and ApoE, final OD600 of 0.015 and 0.04) in CSM-Galactose. For wild-type and Ole1/SCD1/SCD5 plasmid-containing strains, the 2× cell density was 0.02. In all experiments, 15 μL culture was then dispensed into the pinned assay plate to achieve 30 μL of the 1×OD600 culture and a top drug concentration of […]. For 96-well assays (FIGS. 2A and 2B), compound dilutions in DMSO were generated in 96 well plates and 1 μL was manually pipetted into 96 well clear bottom assay plates.
(§4) For experiments using a plasmid-borne copy of Ole1, SCD1, or SCD5 (FIGS. 4B, 7, and 8), media lacking uracil (SX-Ura, where X is glucose, raffinose, or galactose), was used for all steps of the compound profiling protocol to ensure its maintenance throughout the assay.
(§5) After yeast delivery, assay plates were incubated under humidified conditions at 30° C. for 24 to 40 h. ApoE4 rescue experiments were stopped at 24 h, aSyn experiments at 40 h, Ole1 at 24 h, and SCD1/SCD5 at 40 h. The growth of yeast was monitored by reading the OD600 of each well using a microplate reader (Perkin Elmer EnVision™). For model rescue experiments, raw data were processed by background subtracting and calculating a fold-change relative to DMSO control [(EXP−0.035)/(DMSO−0.035)—where 0.035 is the OD600 contributed by an empty well containing 30 μL of media alone]. For growth inhibition of wild-type cells, raw data were processed by background subtracting and converting values to a percent of the nontreated condition for that strain [(EXP−0.035)/(DMSO−0.035)×100%].

human SCD5 = target: T2, human SCD5 (Homo sapiens, UniProt Q86SK9); experiment: Growth of humanized yeast expressing human SCD5 as sole desaturase; type: cell-based, Saccharomyces cerevisiae expressing Saccharomyces cerevisiae expressing Saccharomyces cerevisiae expressing Saccharomyces cerevisiae expressing Saccharomyces cerevisiae expressing human SCD5 SCD5 SCD5 SCD5 SCD5; conditions: yeast growth
T2 construct: host or cells: S. cerevisiae ole1Δ strain (W303 pdr1Δ pdr3Δ background), pRS316 plasmid, TDH3 promoter
T2 sequence (Q86SK9 1-330): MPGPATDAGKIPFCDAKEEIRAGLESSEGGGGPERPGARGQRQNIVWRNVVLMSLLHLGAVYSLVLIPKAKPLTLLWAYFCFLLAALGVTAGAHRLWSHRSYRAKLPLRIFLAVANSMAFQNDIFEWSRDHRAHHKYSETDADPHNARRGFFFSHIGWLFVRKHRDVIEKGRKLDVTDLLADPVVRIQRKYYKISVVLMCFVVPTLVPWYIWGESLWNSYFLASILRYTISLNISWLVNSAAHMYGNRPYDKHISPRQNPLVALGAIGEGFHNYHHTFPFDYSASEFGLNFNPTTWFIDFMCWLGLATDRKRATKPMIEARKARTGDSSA
Source text: as §1, §2, §3, §4, §5

[1] = system: A53T α-synuclein transfected human iPSC-derived neurons; experiment: Neuron survival assay, A53T α-synuclein transfected human iPSC-derived neurons; type: cell-based; conditions: all tested concentrations, 3 μM to 0.3 μM, relative to DMSO
Procedure: Transfected neuronal cultures were imaged at 12-24 h intervals for the indicated number of days by robotic microscopy. Fluorescence images were acquired with a Nikon Eclipse Ti microscope equipped with a motorized stage, 20× extra-long working distance (ELWD) objective, and an Andor Zyla cMOS camera. During image acquisition, microplates were enclosed in an on-stage environmental chamber controlling temperature, CO2, and humidity (Okolab). Images were processed and analyzed with custom-made scripts in R and ImageJ software. The lifetimes of individual neurons were determined by tracking fluorescently-labeled neurons in ImageJ. Neuronal death was determined to occur upon incidence of RFP signal loss or rupture of cell body. Cox proportional hazards analysis was used to generate cumulative hazard plots and determine the risk of neuron death. Log-rank test was used to determine statistical significance of survival curve divergence between neuron cohorts.
A model of α-synuclein toxicity utilizing transient transfection into human iPSC-derived neurons was developed. […] This model was utilized to evaluate the role of SCD in α-synuclein-dependent neuronal toxicity. Human iPSC-derived neurons were transfected with a construct encoding A53T α-synuclein or an empty vector control. […]

## Cc1nnc(-c2ccc(N3CCC(Oc4cc(F)ccc4Cl)CC3)nn2)o1 [CAY10566]
Yeast OLE1
  growth inhibition of yeast expressing OLE1: resistant
Human SCD5
  half-maximal inhibitory concentration (IC50), SCD5 humanized strain: low nanomolar
[1]
  risk of neuron death: significantly reduced

Source: patent US20200222400A1, “METHODS FOR THE TREATMENT OF NEUROLOGICAL DISORDERS” (Yumanity Therapeutics, Inc., priority 2019, published 2020)
